The results in this text go back to patent US10501516B2, “Peptide compound” (TAKEDA PHARMACEUTICAL COMPANY LIMITED, priority 2016, dated 2019).

Square brackets hold non-standard residues; d marks the D form. Side chains are listed from the residue outwards. Peptide text beside a SMILES is read from it. * marks the point of attachment. Phe(2-F) = N[C@@H](Cc1ccccc1F)C(=O)O; NMeY = CN[C@@H](Cc1ccc(O)cc1)C(=O)O; Palmitoyl = CCCCCCCCCCCCCCCC(=O)*; αMeF = C[C@](N)(Cc1ccccc1)C(=O)O; Iva = CC[C@](C)(N)C(=O)O; Aib = CC(C)(N)C(=O)O

The subject of the assay is male C57BL/6J mouse. Briefly: Evaluation of feeding suppressive action in mice. It counts as in vivo. As to conditions: 30 nmol/kg s.c. once a day for 3 days; 3-days cumulative food consumption vs solvent control. The protocol: The feeding suppressive activity of a test compound was examined by the method described below.
The test compound was dissolved at a concentration of 30 or 100 nmol/2 mL in a solvent (10% DMSO-containing physiological saline). The test compound solution was subcutaneously administered at a dose of 2 mL/kg to the back of each male C57BL/6J mouse at 8-9 weeks of age (20-26° C., allowed to take food and water ad libitum; raised in the 12-hour bright-12-hour dark cycle). The administration was performed once a day for 3 days. After the administration, the mouse was individually raised in a rearing cage, and given previously weighed food; food consumption for 3 days after the start of administration was measured. The food consumption was calculated by subtracting the amount of remaining food from the weight of the food given on the day of the start of administration. When the food consumption of a control group receiving administration of the solvent alone was regarded as a suppression rate of 0%, the feeding suppressive activity of each test compound was evaluated on the basis of 3-days cumulative food consumption after the start of administration. The food intake suppression rate (%) of the test compound was defined as (Food consumption of the control group−Food consumption of the test compound-administered group)/Food consumption of the control group×100.

As to `CCCCCCCCCCCCCCCC(=O)NCC(=O)NCC(=O)NCC(=O)NCC(=O)NCCCC[C@H](NC(=O)[C@H](CC(=O)O)NC(=O)[C@H](CO)NC(=O)[C@@H](NC(=O)[C@](C)(Cc1ccccc1)NC(=O)[C@@H](NC(=O)CNC(=O)[C@H](CCC(=O)O)NC(=O)C(C)(C)NC(=O)[C@@H](N)Cc1ccc(O)cc1)[C@@H](C)O)[C@@H](C)O)C(=O)NC(C)(C)C(=O)N[C@H](C(=O)NC(C)(C)C(=O)N[C@@H](CC(C)C)C(=O)N[C@@H](CC(=O)O)C(=O)N[C@@H](CCCCN)C(=O)N[C@@H](CCC(N)=O)C(=O)N[C@@H](C)C(=O)N[C@@H](CCC(N)=O)C(=O)N[C@@](C)(CC)C(=O)N[C@@H](CCC(=O)O)C(=O)N[C@@H](Cc1ccccc1)C(=O)N[C@H](C(=O)N[C@@H](CCCNC(=N)N)C(=O)N[C@@H](Cc1c[nH]cn1)C(=O)N[C@@H](CC(C)C)C(=O)N[C@@H](CC(C)C)C(=O)N[C@@H](CC(N)=O)C(=O)N[C@@H](CCCCN)C(=O)NC(C)(C)C(=O)N[C@H](C(=O)N[C@@H](CCCNC(=N)N)C(=O)N[C@@H](CCC(N)=O)C(=O)N[C@@H](CCCNC(=N)N)C(=O)N[C@@H](Cc1ccccc1F)C(N)=O)[C@@H](C)O)C(C)C)[C@@H](C)CC` [Example 1] (H-Y[Aib]EGT[αMeF]TSDK([Gly-Gly-Gly-Gly-Palmitoyl])[Aib]I[Aib]LDKQAQ[Iva]EFVRHLLNK[Aib]TRQR[Phe(2-F)]-NH2), the “Rate of feeding suppression (%)” value is −37.1%. The result for `CCCCCCCCCCCCCCCC(=O)NCC(=O)NCC(=O)NCC(=O)NCC(=O)NCCCC[C@H](NC(=O)[C@H](CC(=O)O)NC(=O)[C@H](CO)NC(=O)[C@@H](NC(=O)[C@](C)(Cc1ccccc1)NC(=O)[C@@H](NC(=O)CNC(=O)[C@H](CCC(=O)O)NC(=O)C(C)(C)NC(=O)[C@@H](N)Cc1ccc(O)cc1)[C@@H](C)O)[C@@H](C)O)C(=O)N[C@@H](C)C(=O)N[C@H](C(=O)NC(C)(C)C(=O)N[C@@H](CC(C)C)C(=O)N[C@@H](CC(=O)O)C(=O)N[C@@H](CCCCN)C(=O)N[C@@H](CCC(N)=O)C(=O)N[C@@H](CCCNC(=N)N)C(=O)N[C@@H](CCC(N)=O)C(=O)N[C@@](C)(CC)C(=O)N[C@@H](CCC(=O)O)C(=O)N[C@@H](Cc1ccccc1)C(=O)N[C@H](C(=O)N[C@@H](CCCNC(=N)N)C(=O)N[C@@H](Cc1c[nH]cn1)C(=O)N[C@@H](CC(C)C)C(=O)N[C@@H](CC(C)C)C(=O)N[C@@H](CC(N)=O)C(=O)N[C@@H](CCCCN)C(=O)NC(C)(C)C(=O)N[C@H](C(=O)N[C@@H](CCCNC(=N)N)C(=O)N[C@@H](CCC(N)=O)C(=O)N[C@@H](CCCNC(=N)N)C(=O)N[C@@H](Cc1ccc(O)cc1)C(N)=O)[C@@H](C)O)C(C)C)[C@@H](C)CC` [Example 11] (H-Y[Aib]EGT[αMeF]TSDK([Gly-Gly-Gly-Gly-Palmitoyl])AI[Aib]LDKQRQ[Iva]EFVRHLLNK[Aib]TRQRY-NH2) reads −48.1%. In the case of `CCCCCCCCCCCCCCCC(=O)NCC(=O)NCC(=O)NCC(=O)NCC(=O)NCCCC[C@H](NC(=O)[C@H](CC(=O)O)NC(=O)[C@H](CO)NC(=O)[C@@H](NC(=O)[C@](C)(Cc1ccccc1)NC(=O)[C@@H](NC(=O)CNC(=O)[C@H](CCC(=O)O)NC(=O)C(C)(C)NC(=O)[C@@H](N)Cc1ccc(O)cc1)[C@@H](C)O)[C@@H](C)O)C(=O)N[C@@H](CO)C(=O)N[C@H](C(=O)NC(C)(C)C(=O)N[C@@H](CC(C)C)C(=O)N[C@@H](CC(=O)O)C(=O)N[C@@H](CCCCN)C(=O)N[C@@H](CCC(N)=O)C(=O)N[C@@H](CCCNC(=N)N)C(=O)N[C@@H](CCC(N)=O)C(=O)N[C@@](C)(CC)C(=O)N[C@@H](CCC(=O)O)C(=O)N[C@@H](Cc1ccccc1)C(=O)N[C@H](C(=O)N[C@@H](CCCNC(=N)N)C(=O)N[C@@H](Cc1c[nH]cn1)C(=O)N[C@@H](CC(C)C)C(=O)N[C@@H](CC(C)C)C(=O)N[C@@H](CC(N)=O)C(=O)N[C@@H](CCCCN)C(=O)NC(C)(C)C(=O)N[C@H](C(=O)N[C@@H](CCCNC(=N)N)C(=O)N[C@@H](CCC(N)=O)C(=O)N[C@@H](CCCNC(=N)N)C(=O)N[C@@H](Cc1ccc(O)cc1)C(N)=O)[C@@H](C)O)C(C)C)[C@@H](C)CC` [Example 15] (H-Y[Aib]EGT[αMeF]TSDK([Gly-Gly-Gly-Gly-Palmitoyl])SI[Aib]LDKQRQ[Iva]EFVRHLLNK[Aib]TRQRY-NH2), the “Rate of feeding suppression (%)” value is −41.2%. The result for `CCCCCCCCCCCCCCCC(=O)NCC(=O)NCC(=O)NCC(=O)NCC(=O)NCCCC[C@H](NC(=O)[C@H](CC(=O)O)NC(=O)[C@H](CO)NC(=O)[C@@H](NC(=O)[C@](C)(Cc1ccccc1)NC(=O)[C@@H](NC(=O)CNC(=O)[C@H](CCC(=O)O)NC(=O)C(C)(C)NC(=O)[C@@H](N)Cc1ccc(O)cc1)[C@@H](C)O)[C@@H](C)O)C(=O)NC(C)(C)C(=O)N[C@@H](CCCCN)C(=O)NC(C)(C)C(=O)N[C@@H](CC(C)C)C(=O)N[C@@H](CC(=O)O)C(=O)N[C@@H](CCCCN)C(=O)N[C@@H](CCC(N)=O)C(=O)N[C@@H](CCCNC(=N)N)C(=O)N[C@@H](CCC(N)=O)C(=O)N[C@@](C)(CC)C(=O)N[C@@H](CCC(=O)O)C(=O)N[C@@H](Cc1ccccc1)C(=O)N[C@H](C(=O)N[C@@H](CCCNC(=N)N)C(=O)N[C@@H](Cc1c[nH]cn1)C(=O)N[C@@H](CC(C)C)C(=O)N[C@@H](CC(C)C)C(=O)N[C@@H](CC(N)=O)C(=O)N[C@@H](CCCCN)C(=O)NC(C)(C)C(=O)N[C@H](C(=O)N[C@@H](CCCNC(=N)N)C(=O)N[C@@H](CCC(N)=O)C(=O)N[C@@H](CCCNC(=N)N)C(=O)N[C@@H](Cc1ccc(O)cc1)C(N)=O)[C@@H](C)O)C(C)C` [Example 19] (H-Y[Aib]EGT[αMeF]TSDK([Gly-Gly-Gly-Gly-Palmitoyl])[Aib]K[Aib]LDKQRQ[Iva]EFVRHLLNK[Aib]TRQRY-NH2) reads −37.0%. Regarding `CCCCCCCCCCCCCCCC(=O)NCC(=O)NCC(=O)NCC(=O)NCC(=O)NCCCC[C@H](NC(=O)[C@H](CC(=O)O)NC(=O)[C@H](CO)NC(=O)[C@@H](NC(=O)[C@](C)(Cc1ccccc1)NC(=O)[C@@H](NC(=O)CNC(=O)[C@H](CCC(=O)O)NC(=O)C(C)(C)NC(=O)[C@H](Cc1ccc(O)cc1)NC)[C@@H](C)O)[C@@H](C)O)C(=O)NC(C)(C)C(=O)N[C@@H](CCCCN)C(=O)NC(C)(C)C(=O)N[C@@H](CC(C)C)C(=O)N[C@@H](CC(=O)O)C(=O)N[C@@H](CCCCN)C(=O)N[C@@H](CCC(N)=O)C(=O)N[C@@H](CCCNC(=N)N)C(=O)N[C@@H](CCC(N)=O)C(=O)N[C@@](C)(CC)C(=O)N[C@@H](CCC(=O)O)C(=O)N[C@@H](Cc1ccccc1)C(=O)N[C@H](C(=O)N[C@@H](CCCNC(=N)N)C(=O)N[C@@H](Cc1c[nH]cn1)C(=O)N[C@@H](CC(C)C)C(=O)N[C@@H](CC(C)C)C(=O)N[C@@H](CC(N)=O)C(=O)N[C@@H](CCCCN)C(=O)NC(C)(C)C(=O)N[C@H](C(=O)N[C@@H](CCCNC(=N)N)C(=O)N[C@@H](CCC(N)=O)C(=O)N[C@@H](CCCNC(=N)N)C(=O)N[C@@H](Cc1ccc(O)cc1)C(N)=O)[C@@H](C)O)C(C)C` [Example 21] (H-[NMeY][Aib]EGT[αMeF]TSDK([Gly-Gly-Gly-Gly-Palmitoyl])[Aib]K[Aib]LDKQRQ[Iva]EFVRHLLNK[Aib]TRQRY-NH2), the “Rate of feeding suppression (%)” value is −27.9%.
